Data from US8216786B2, “Genetic polymorphisms associated with cardiovascular diseases, methods of detection and uses thereof” (Celera Corporation, priority 2008, dated 2012).

Tested on: individuals who have previously had an MI
Test: CARE trial: effect of pravastatin vs placebo on coronary events (endpt1, rmi) by SNP genotype subgroup
Format: in vivo, human
Conditions: for HR: pravastatin vs placebo
Method: In Tables 21-22, the column labeled “Endpoint” indicates whether the endpoint that was analyzed was the primary endpoint of the CARE study (a composite endpoint of fatal coronary event or nonfatal MI, and identified as “endpt1”) or a composite endpoint of confirmed fatal or nonfatal MI (identified as “rmi”). […] As used herein, the term “benefit” (with respect to a preventive or therapeutic drug treatment) is defined as achieving a reduced risk for a disease that the drug is intended to treat or prevent (e.g., CVD such as CHD, particularly MI, or hypertension) by administering the drug treatment, compared with the risk for the disease in the absence of receiving the drug treatment (or receiving a placebo in lieu of the drug treatment) for the same genotype. […] J. […] (1996) New England Journal of Medicine 335: 1001-1009. […] A well-documented MI was one of the enrollment criteria for entry into the CARE study. Patients were enrolled in the CARE trial from 80 participating study centers. […] For the study of CARE described in this Example and shown in Tables 21-22, two endpoints were investigated: the primary endpoint of CARE (a composite endpoint of fatal coronary event or nonfatal MI, and identified as “endpt1” in the Endpoint column of Tables 21-22) and a composite endpoint of confirmed fatal or nonfatal MI (identified as “rmi” in the Endpoint column of Tables 21-22). […] HR stands for Hazard Ratio, which is a concept similar to Odds Ratio (OR). The HR in event-free survival analysis is the effect of an explanatory variable on the hazard or risk of an event. […] In Table 21, p-interaction values were calculated. An interaction (or effect modification) is formed when a third variable modifies the relation between an exposure and outcome. […] Genotype and drug interaction is present when the effect of statins (incidence rate of disease in statin-treated group, as compared to placebo) differs in patients with different genotypes.

[1] = endpt1, hCV8851065 rs9277343 HLA-DPA1, GC + CC
[2] = endpt1, hCV8851065 rs9277343 HLA-DPA1, GG
[3] = endpt1, hCV8851085 rs1042153 HLA-DPB1, AG + AA
[4] = endpt1, hCV8851085 rs1042153 HLA-DPB1, GG
[5] = endpt1, hCV8851095 rs1042335 HLA-DPB1, TC + CC
[6] = endpt1, hCV8851095 rs1042335 HLA-DPB1, TT
[7] = endpt1, hCV8895373 rs1503185 PTPRJ, AG + AA
[8] = endpt1, hCV8895373 rs1503185 PTPRJ, GG
[9] = endpt1, hCV8901525 rs861539 KLC1, AG + AA
[10] = endpt1, hCV8901525 rs861539 KLC1, GG
[11] = endpt1, hCV8921288 rs1060621 GAPDH, AA
[12] = endpt1, hCV8921288 rs1060621 GAPDH, CA + CC
[13] = endpt1, hCV9055799 rs3734311 IMPG1, CC
[14] = endpt1, hCV9055799 rs3734311 IMPG1, CG + GG
[15] = endpt1, hCV9077561 rs1801274 FCGR2A, AA
[16] = endpt1, hCV9077561 rs1801274 FCGR2A, GA + GG
[17] = endpt1, hCV9506149 rs1250259 FN1, AA
[18] = endpt1, hCV9506149 rs1250259 FN1, TA + TT
[19] = endpt1, hCV9596963 rs6115 SERPINA5, GA + AA
[20] = endpt1, hCV9596963 rs6115 SERPINA5, GG
[21] = endpt1, hCV9604851 rs1805002 CCKBR, AG + AA
[22] = endpt1, hCV9604851 rs1805002 CCKBR, GG
[23] = endpt1, hCV25630686 PSMB9, TC + TT
[24] = endpt1, hCV25631989 rs1135983 ATF6, CC
[25] = endpt1, hCV25631989 rs1135983 ATF6, TC + TT
[26] = endpt1, hCV25637309 rs3204849 CCRL2, AA
[27] = endpt1, hCV25637309 rs3204849 CCRL2, AT + TT
[28] = endpt1, hCV25644901 ITGA9, GA + GG
[29] = endpt1, hCV25651076 rs5743291 NOD2, AG + AA
[30] = endpt1, hCV25651076 rs5743291 NOD2, GG
[31] = endpt1, hCV25651174 rs9277356 HLA-DPB1, GA + GG
[32] = endpt1, hCV342590 rs6030 F5, Strata CC
[33] = endpt1, hCV342590 rs6030 F5, Strata CT
[34] = endpt1, hCV342590 rs6030 F5, Strata TT
[35] = endpt1, hCV435368 rs2812 PECAM1, Strata CC
[36] = endpt1, hCV435368 rs2812 PECAM1, Strata TC
[37] = endpt1, hCV435368 rs2812 PECAM1, Strata TT
[38] = endpt1, hCV3135085 rs10795446 CUBN, Strata GT
[39] = endpt1, hCV3135085 rs10795446 CUBN, Strata TT
[40] = endpt1, hCV3275199 rs2069885 IL9, Strata AA
[41] = endpt1, hCV3275199 rs2069885 IL9, Strata AG
[42] = endpt1, hCV3275199 rs2069885 IL9, Strata GG

## CC[C@H](C)C(=O)O[C@H]1C[C@H](O)C=C2C=C[C@H](C)[C@H](CC[C@@H](O)C[C@@H](O)CC(=O)O)[C@H]21 [pravastatin]
endpt1, hCV8851047 rs45614833 HLA-DPA1, CT + TT
  NONEVENT (Pravastatin arm): 1229
[1]
  EVENTS (Pravastatin arm): 120
  NONEVENT (Pravastatin arm): 1198
[2]
  EVENTS (Pravastatin arm): 13
  NONEVENT (Pravastatin arm): 90
[3]
  EVENTS (Pravastatin arm): 58
  NONEVENT (Pravastatin arm): 491
[4]
  EVENTS (Pravastatin arm): 74
  NONEVENT (Pravastatin arm): 798
[5]
  EVENTS (Pravastatin arm): 126
  NONEVENT (Pravastatin arm): 1216
[6]
  EVENTS (Pravastatin arm): 7
  NONEVENT (Pravastatin arm): 40
[7]
  EVENTS (Pravastatin arm): 53
  NONEVENT (Pravastatin arm): 409
[8]
  EVENTS (Pravastatin arm): 80
  NONEVENT (Pravastatin arm): 882
[9]
  EVENTS (Pravastatin arm): 88
  NONEVENT (Pravastatin arm): 759
[10]
  EVENTS (Pravastatin arm): 45
  NONEVENT (Pravastatin arm): 504
[11]
  EVENTS (Pravastatin arm): 97
  NONEVENT (Pravastatin arm): 815
[12]
  EVENTS (Pravastatin arm): 36
  NONEVENT (Pravastatin arm): 440
[13]
  EVENTS (Pravastatin arm): 15
  NONEVENT (Pravastatin arm): 247
[14]
  EVENTS (Pravastatin arm): 117
  NONEVENT (Pravastatin arm): 1040
[15]
  EVENTS (Pravastatin arm): 36
  NONEVENT (Pravastatin arm): 300
[16]
  EVENTS (Pravastatin arm): 96
  NONEVENT (Pravastatin arm): 985
endpt1, hCV9494470, GG
  EVENTS (Pravastatin arm): 100
  NONEVENT (Pravastatin arm): 884
endpt1, hCV9494470, TG + TT
  EVENTS (Pravastatin arm): 33
  NONEVENT (Pravastatin arm): 407
[17]
  EVENTS (Pravastatin arm): 64
  NONEVENT (Pravastatin arm): 678
[18]
  EVENTS (Pravastatin arm): 69
  NONEVENT (Pravastatin arm): 611
[19]
  EVENTS (Pravastatin arm): 106
  NONEVENT (Pravastatin arm): 1147
[20]
  EVENTS (Pravastatin arm): 26
  NONEVENT (Pravastatin arm): 136
[21]
  EVENTS (Pravastatin arm): 19
  NONEVENT (Pravastatin arm): 113
[22]
  EVENTS (Pravastatin arm): 114
  NONEVENT (Pravastatin arm): 1178
endpt1, hCV25630686 PSMB9, CC
  EVENTS (Pravastatin arm): 128
  NONEVENT (Pravastatin arm): 1206
[23]
  EVENTS (Pravastatin arm): 5
  NONEVENT (Pravastatin arm): 85
[24]
  EVENTS (Pravastatin arm): 107
  NONEVENT (Pravastatin arm): 1044
[25]
  EVENTS (Pravastatin arm): 26
  NONEVENT (Pravastatin arm): 198
[26]
  EVENTS (Pravastatin arm): 24
  NONEVENT (Pravastatin arm): 184
[27]
  EVENTS (Pravastatin arm): 109
  NONEVENT (Pravastatin arm): 1107
endpt1, hCV25640504, TC + CC
  EVENTS (Pravastatin arm): 113
  NONEVENT (Pravastatin arm): 1035
endpt1, hCV25640504, TT
  EVENTS (Pravastatin arm): 12
  NONEVENT (Pravastatin arm): 194
endpt1, hCV25644901 ITGA9, AA
  EVENTS (Pravastatin arm): 124
  NONEVENT (Pravastatin arm): 1171
[28]
  EVENTS (Pravastatin arm): 9
  NONEVENT (Pravastatin arm): 120
[29]
  EVENTS (Pravastatin arm): 28
  NONEVENT (Pravastatin arm): 217
[30]
  EVENTS (Pravastatin arm): 104
  NONEVENT (Pravastatin arm): 1068
[31]
  EVENTS (Pravastatin arm): 76
  NONEVENT (Pravastatin arm): 641
[32]
  EVENTS (Pravastatin arm): 15
  NONEVENT (Pravastatin arm): 123
[33]
  EVENTS (Pravastatin arm): 44
  NONEVENT (Pravastatin arm): 553
[34]
  EVENTS (Pravastatin arm): 74
  NONEVENT (Pravastatin arm): 613
[35]
  EVENTS (Pravastatin arm): 37
  NONEVENT (Pravastatin arm): 369
[36]
  EVENTS (Pravastatin arm): 56
  NONEVENT (Pravastatin arm): 649
[37]
  EVENTS (Pravastatin arm): 40
  NONEVENT (Pravastatin arm): 272
[38]
  EVENTS (Pravastatin arm): 64
  NONEVENT (Pravastatin arm): 554
[39]
  EVENTS (Pravastatin arm): 57
  NONEVENT (Pravastatin arm): 575
[40]
  EVENTS (Pravastatin arm): 5
  NONEVENT (Pravastatin arm): 28
[41]
  EVENTS (Pravastatin arm): 18
  NONEVENT (Pravastatin arm): 310
[42]
  EVENTS (Pravastatin arm): 109
  NONEVENT (Pravastatin arm): 947
hCV16189421, first genotype stratum listed (strata and endpoint not given)
  HR: 1
hCV16189421, second genotype stratum listed (strata and endpoint not given)
  HR: 0.67
hCV25630686, first genotype stratum listed (strata and endpoint not given)
  HR: 0.35
hCV25630686, second genotype stratum listed (strata and endpoint not given)
  HR: 0.81
hCV25631989, first genotype stratum listed (strata and endpoint not given)
  HR: 1.83
hCV25631989, second genotype stratum listed (strata and endpoint not given)
  HR: 0.72
hCV25644901, first genotype stratum listed (strata and endpoint not given)
  HR: 0.32
hCV25644901, second genotype stratum listed (strata and endpoint not given)
  HR: 0.86
